We go through 20 compounds from patent publication US9708279B2, “2-acylaminothiazoles for the treatment of cancer” (UNIVERSITA′ DEGLI STUDI DI MILANO-BICOCCA, priority 2013, dated 2017).

Assay [1] concerns BaF3 cells transformed with the oncogenic fusion protein NPM/ALK. The experiment in a line: Tritiated thymidine uptake cell proliferation assay, BaF3 NPM/ALK. The format is cell-based. Particulars: for IC50: BaF3 NPM/ALK cells, 72 h, 3H-thymidine uptake, read-out: NPM/ALK WT IC50; for Selectivity Index (WT): parental BaF3 versus BaF3 NPM/ALK WT. As to the method: (§1) Tritiated Thymidine Uptake Cell Proliferation Assay
(§2) The parent untransformed BaF3 cells and ALK-negative cells are used as controls. Cells are seeded in U-bottomed 96-well plates at 10 000 cells/well in a volume of 100 μL in supplemented medium. In the case of the parent untransformed BaF3 cells, the medium is supplemented with IL-3. Serial dilutions of inhibitors are added to the appropriate wells and volumes adjusted to 200 μL. Controls were treated with the equivalent volume of vehicle, DMSO, alone. Plates are incubated at 37° C. for 72 h. ^3[H]-thymidine (1 μCiCi/well) is added for the last 8 h of incubation.

Assay [2] has as its target recombinant wild-type ALK kinase (rALK) (Homo sapiens (Human), UniProt Q9UM73). The experiment in a line: ELISA-based in vitro kinase assay, wild-type ALK. The format is biochemical. Conditions: 0.3 mM ATP, read-out: ALK WT IC50. On the technique in general: In an ELISA, binding on a coated surface is turned into a signal by an enzyme label.
Method: ELISA-Based in vitro Kinase Assay
GST-tagged recombinant wild-type or L1196M mutated ALK kinase (rALK) was expressed in Sf9 insect cells using the pBacPAK baculovirus vector system (Clontech) and purified using Glutathione Sepharose 4B affinity beads (GE Healthcare). Recombinant 3C protease was used to remove the GST tag. Purified ALK was used to screen inhibitors in the ELISA-based kinase assay, as follows: Nunc-Immuno 96-well plates were incubated overnight at 30° C. with coating solution containing 2 μg of a specific ALK peptide substrate ([sequence]) in PBS. Wells were then washed with 200 μL of wash buffer (PBS-Tween 0.05%) and incubated with 4% BSA in PBS for at least 2 h at 30° C. The kinase reaction was performed in the presence of 50 mM Tris pH 7.5, 5 mM MnCl2, 5 mM MgCl2, 0.3 mM ATP and purified rALK in a total volume of 100 μL/well at 30° C. for 15 min. For inhibitor testing the reaction mix was preincubated with inhibitor or vehicle for 10 min at room temperature before transferring to the ELISA plate. After the reaction, the wells were washed 5 times with 200 uL of wash buffer. Phosphorylated peptide was detected using 100 μL/well of a mouse monoclonal anti-phosphotyrosine antibody (clone 4G10 UpstateBiotech Ltd) diluted 1:2000 in PBS+4% BSA. After 30 min incubation at room temperature the antibody was removed and wells were washed as described above. 100 μL of a secondary antibody (anti-mouse IgG, Horseradish Peroxidase linked whole antibody, Amersham Pharmacia Biotech) diluted 1:1000 in PBS+4% BSA was added to each well and the plate was incubated again for 30 min at room temperature before washing as above. The plate was developed using 100 μL/well TMB Substrate Solution (Pierce) and the reaction was stopped by adding an equal volume of 1M H2SO4. Finally, the absorbance was read at 450 nm using an ELISA plate reader (Bio-Rad).
In assay [3] the test system is parental untransformed BaF3 cells. The experiment in a line: Tritiated thymidine uptake cell proliferation assay, parental BaF3. The format is cell-based. Particulars: Mus musculus. The procedure: as §1
as §2, with “incubation. Cells are harvested on to paper filters and ^3[H]-thymidine incorporation is measured using a β scintillation counter (1430 MicroBeta, Wallac, Turku, Finland). The 50% inhibitory concentration (IC50) is defined as the concentration of inhibitor, expressed in micromolar, that give a 50% decrease in ^3[H]-thymidine uptake compared with controls.” for “incubation.”

The mark [4] stands for this setting: parental BaF3 cells (IL-3), 72 h, 3H-thymidine uptake, read-out: Parental IC50.

Read-outs that look alike come from different tables or passages of the source.

recombinant wild-type ALK kinase (rALK), sequence (Q9UM73 19-1620): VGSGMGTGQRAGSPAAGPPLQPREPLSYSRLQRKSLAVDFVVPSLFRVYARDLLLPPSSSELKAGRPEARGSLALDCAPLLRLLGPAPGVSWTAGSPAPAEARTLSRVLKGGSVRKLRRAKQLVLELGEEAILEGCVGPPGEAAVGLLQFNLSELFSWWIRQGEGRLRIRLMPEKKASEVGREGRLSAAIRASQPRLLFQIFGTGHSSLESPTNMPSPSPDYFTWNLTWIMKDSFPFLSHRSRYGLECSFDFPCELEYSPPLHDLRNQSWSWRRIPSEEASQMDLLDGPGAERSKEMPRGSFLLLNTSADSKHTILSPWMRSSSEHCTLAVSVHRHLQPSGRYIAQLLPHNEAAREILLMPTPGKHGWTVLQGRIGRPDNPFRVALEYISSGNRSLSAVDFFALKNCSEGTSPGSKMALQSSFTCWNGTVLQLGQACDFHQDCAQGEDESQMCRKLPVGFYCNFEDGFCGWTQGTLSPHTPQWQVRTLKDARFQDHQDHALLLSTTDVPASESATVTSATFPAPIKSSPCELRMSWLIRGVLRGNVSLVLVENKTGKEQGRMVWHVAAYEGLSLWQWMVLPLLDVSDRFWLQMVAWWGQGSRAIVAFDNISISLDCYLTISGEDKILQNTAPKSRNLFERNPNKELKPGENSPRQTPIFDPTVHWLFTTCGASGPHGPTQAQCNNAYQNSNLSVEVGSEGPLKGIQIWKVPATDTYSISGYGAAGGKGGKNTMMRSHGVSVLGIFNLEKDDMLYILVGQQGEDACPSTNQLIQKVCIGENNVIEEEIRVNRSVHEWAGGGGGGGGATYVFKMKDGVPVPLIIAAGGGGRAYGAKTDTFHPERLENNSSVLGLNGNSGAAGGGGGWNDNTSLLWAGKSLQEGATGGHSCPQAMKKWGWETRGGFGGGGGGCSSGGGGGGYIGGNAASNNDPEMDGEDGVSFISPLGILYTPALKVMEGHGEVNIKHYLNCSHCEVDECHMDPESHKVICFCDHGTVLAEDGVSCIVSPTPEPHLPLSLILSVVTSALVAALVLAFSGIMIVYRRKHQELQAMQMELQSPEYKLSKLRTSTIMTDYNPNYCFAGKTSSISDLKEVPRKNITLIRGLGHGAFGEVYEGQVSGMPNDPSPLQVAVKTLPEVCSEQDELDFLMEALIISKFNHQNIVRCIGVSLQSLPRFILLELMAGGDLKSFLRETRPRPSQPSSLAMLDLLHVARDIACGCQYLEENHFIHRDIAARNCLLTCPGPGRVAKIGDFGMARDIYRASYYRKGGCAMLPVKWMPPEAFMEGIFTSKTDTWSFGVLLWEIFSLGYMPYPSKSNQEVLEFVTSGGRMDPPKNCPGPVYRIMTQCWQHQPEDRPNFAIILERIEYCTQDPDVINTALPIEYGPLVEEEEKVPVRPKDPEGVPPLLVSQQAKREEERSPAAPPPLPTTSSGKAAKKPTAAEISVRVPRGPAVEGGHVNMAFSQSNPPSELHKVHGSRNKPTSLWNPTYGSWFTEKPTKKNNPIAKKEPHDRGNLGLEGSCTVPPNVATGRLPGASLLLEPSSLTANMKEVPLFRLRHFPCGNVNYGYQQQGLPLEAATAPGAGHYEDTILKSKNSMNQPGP

Turning to `CN1CCN(C(=O)c2ccc(-c3ccc(C(=O)Nc4nc(-c5cccc(C#Cc6cc(C(F)(F)F)cc(C(F)(F)F)c6)c5)cs4)o3)cc2)CC1` [Example 34, N-(4-(3-((3,5-bis(trifluoromethyl)phenyl)ethynyl)phenyl)thiazol-2-yl)-5-(4-(4-methylpiperazine-1-carbonyl)phenyl)furan-2-carboxamide], the IC50 in assay [1] was 1.9 µM; in assay [2], > 100 µM; in assay [3] (setting [4]), 4 µM. For the same compound, the “Selectivity Index (WT)” value in assay [1] is listed as 2.
As to `O=C(Nc1nc(-c2cccc(C#Cc3cc(C(F)(F)F)cc(C(F)(F)F)c3)c2)cs1)c1ccc(CN2CCOCC2)cc1` [Example 39, N-(4-(3-((3,5-bis(trifluoromethyl)phenyl)ethynyl)phenyl)thiazol-2-yl)-4-(morpholinomethyl)benzamide], the IC50 in assay [1] is 9 µM; in assay [2] it was > 100 µM; in assay [3] (setting [4]) it was 33 µM. Moreover, the “Selectivity Index (WT)” value in assay [1] was 4.
For `CN1CCN(C(=O)c2ccc(-c3ccc(C(=O)Nc4nc(-c5cccc(C#Cc6ccccc6OC(F)(F)F)c5)cs4)o3)cc2)CC1` [Example 43, 5-(4-(4-methylpiperazine-1-carbonyl)phenyl)-N-(4-(3-((2-(trifluoromethoxy)phenyl)ethynyl)phenyl)thiazol-2-yl)furan-2-carboxamide], in that order: 4.9 µM, > 100 µM, 4.5 µM and 1.
With `CC(C)[Si](C#Cc1cccc(-c2csc(NC(=O)c3ccc(CNCCN(C)C)cc3)n2)c1)(C(C)C)C(C)C` [Example 44, 4-(((2-(dimethylamino)ethyl)amino)methyl)-N-(4-(3-((triisopropylsilyl)ethynyl)phenyl)thiazol-2-yl)benzamide], the IC50 in assay [1] was 5.1 µM; in assay [2], > 100 µM; in assay [3] (setting [4]), 7.8 µM.
For `CN1CCN(Cc2ccc(C(=O)Nc3nc(-c4ccc(C#Cc5cc(C(F)(F)F)cc(C(F)(F)F)c5)cc4)cs3)cc2)CC1` [Example 36, N-(4-(4-((3,5-bis(trifluoromethyl)phenyl)ethynyl)phenyl)thiazol-2-yl)-4-((4-methylpiperazin-1-yl)methyl)benzamide], in assay [3] (BaF3, read-out: Parental IC50), the IC50 came to 6.9 µM.
On to `COc1ccc(C#Cc2cc(-c3csc(NC(=O)c4ccc(CN5CCN(C)CC5)cc4)n3)ccc2C)cc1` [Example 6, N-(4-(3-((4-methoxyphenyl)ethynyl)-4-methylphenyl)thiazol-2-yl)-4-((4-methylpiperazin-1-yl)methyl)benzamide], for which the IC50 is 2.1 µM in assay [1], > 100 µM in assay [2] and 6.6 µM in assay [3] (setting [4]). Also, the “Selectivity Index (WT)” value in assay [1] is 3.
Regarding `CN1CCN(Cc2ccc(C(=O)Nc3nc(-c4ccc(C#Cc5ccccc5C(F)(F)F)c(C#Cc5ccccc5C(F)(F)F)c4)cs3)cc2)CC1` [Example 13, N-(4-(3,4-bis((2-(trifluoromethyl)phenyl)ethynyl)phenyl)thiazol-2-yl)-4-((4-methylpiperazin-1-yl)methyl)benzamide], the IC50 in assay [3] (BaF3, read-out: Parental IC50) amounted to 3.1 µM.
As for `CN1CCN(Cc2ccc(C(=O)Nc3nc(-c4cccc(C#Cc5ccccc5)c4)cs3)cc2)CC1` [Example 1, 4-((4-methylpiperazin-1-yl)methyl)-N-(4-(3-(phenylethynyl)phenyl)thiazol-2-yl)benzamide], the IC50 in assay [3] (BaF3, read-out: Parental IC50) was determined as 4.7 µM.
Still for that read-out and setting: to `CN1CCN(Cc2ccc(C(=O)Nc3nc(-c4cccc(C#C[Si](C)(C)C(C)(C)C)c4)cs3)cc2)CC1` [Example 24, N-(4-(3-((tert-butyldimethylsilyl)ethynyl)phenyl)thiazol-2-yl)-4-((4-methylpiperazin-1-yl)methyl)benzamide] belongs 2.4 µM; to `CN1CCN(Cc2ccc(C(=O)Nc3nc(-c4cccc(C#C[Si](C)(C)C)c4)cs3)cc2)CC1` [Example 18, 4-((4-methylpiperazin-1-yl)methyl)-N-(4-(3-((trimethylsilyl)ethynyl)phenyl)thiazol-2-yl)benzamide], 0.45 µM; to `Cc1ccc(C#Cc2cc(-c3csc(NC(=O)c4ccc(CN5CCN(C)CC5)cc4)n3)ccc2C)cc1` [Example 5, N-(4-(4-methyl-3-(p-tolylethynyl)phenyl)thiazol-2-yl)-4-((4-methylpiperazin-1-yl)methyl)benzamide], 5.3 µM.
Still for that read-out and setting: to `CN1CCN(Cc2ccc(C(=O)Nc3nc(-c4cccc(C#Cc5ccccc5F)c4)cs3)cc2)CC1` [Example 31, N-(4-(3-((2-fluorophenyl)ethynyl)phenyl)thiazol-2-yl)-4-((4-methylpiperazin-1-yl)methyl)benzamide] belongs 2.2 µM.
On the same count and under the same terms, the value for `CC(C)[Si](C#Cc1cccc(-c2csc(NC(=O)c3ccc(-c4ccc(C(=O)N5CCN(C)CC5)cc4)o3)n2)c1)(C(C)C)C(C)C` [Example 26, 5-(4-(4-methylpiperazine-1-carbonyl)phenyl)-N-(4-(3-((triisopropylsilyl)ethynyl)phenyl)thiazol-2-yl)furan-2-carboxamide] was 11 µM; that for `COc1ccc(C#Cc2cccc(-c3csc(NC(=O)c4ccc(CN5CCN(C)CC5)cc4)n3)c2)cc1` [Example 3, N-(4-(3-((4-methoxyphenyl)ethynyl)phenyl)thiazol-2-yl)-4-((4-methylpiperazin-1-yl)methyl)benzamide] was 2.3 µM.
For `CN1CCN(C(=O)c2ccc(-c3ccc(C(=O)Nc4nc(-c5cccc(C#C[Si](C)(C)C(C)(C)C)c5)cs4)o3)cc2)CC1` [Example 27, N-(4-(3-((tert-butyldimethylsilyl)ethynyl)phenyl)thiazol-2-yl)-5-(4-(4-methylpiperazine-1-carbonyl)phenyl)furan-2-carboxamide], the IC50 in assay [3] (BaF3, read-out: Parental IC50) stood at 2.3 µM.
In the case of `CC(C)[Si](C#Cc1ccc(-c2csc(NC(=O)c3ccc(CN4CCN(C)CC4)cc3)n2)cc1)(C(C)C)C(C)C` [Example 35, 4-((4-methylpiperazin-1-yl)methyl)-N-(4-(4-((triisopropylsilyl)ethynyl)phenyl)thiazol-2-yl)benzamide], the IC50 in assay [3] (BaF3, read-out: Parental IC50) came to 7.3 µM.
On the same count and under the same terms, the value for `C#CCN1CCN(Cc2ccc(C(=O)Nc3nc(-c4cccc(C#C[Si](C(C)C)(C(C)C)C(C)C)c4)cs3)cc2)CC1` [Example 50, 4-((4-(prop-2-yn-1-yl)piperazin-1-yl)methyl)-N-(4-(3-((triisopropylsilyl)ethynyl)phenyl)thiazol-2-yl)benzamide] was > 50 µM.
As for `Cc1ccc(-c2csc(NC(=O)c3ccc(CN4CCN(C)CC4)cc3)n2)cc1C#Cc1ccc(F)cc1` [Example 9, N-(4-(3-((4-fluorophenyl)ethynyl)-4-methylphenyl)thiazol-2-yl)-4-((4-methylpiperazin-1-yl)methyl)benzamide], the IC50 is 2.3 µM in assay [1], > 100 µM in assay [2] and 4 µM in assay [3] (setting [4]). For the same compound, the “Selectivity Index (WT)” value in assay [1] turned out to be 2.
For the compound `CC(C)[Si](C#Cc1cccc(-c2csc(NC(=O)c3ccc(Cn4ccnc4)cc3)n2)c1)(C(C)C)C(C)C` [Example 46, 4-((1H-imidazol-1-yl)methyl)-N-(4-(3-((triisopropylsilyl)ethynyl)phenyl)thiazol-2-yl)benzamide], the IC50 in assay [3] (BaF3, read-out: Parental IC50) was 11 µM.
The same measure, in the same setting: to `CN1CCN(Cc2ccc(C(=O)Nc3nc(-c4cccc(C#CCOC(c5ccccc5)(c5ccccc5)c5ccccc5)c4)cs3)cc2)CC1` [Example 30, 4-((4-methylpiperazin-1-yl)methyl)-N-(4-(3-(3-(trityloxy)prop-1-yn-1-yl)phenyl)thiazol-2-yl)benzamide] belongs 10 µM.
